Measurements: patent publication US20240132484A1, “BROAD SPECTRUM ANTIVIRAL COMPOUNDS TARGETING THE SKI COMPLEX” (priority 2020, published 2024)
Where “and” joins values, the source holds several entries; their conditions need not be identical. Identical values can stand only once. Like-named read-outs stand apart in the source and are kept apart here.

Key:
SARS2 = type: cell-based, SARS-CoV-2; conditions: for Percentage Inhibition Average 1 μM / Screening data (Relative infection to DMSO controls) Average 1 μM: SARS2, 1 μM; for Screening data (Relative infection to DMSO controls) Average 1 μM / Screening data (Relative infection to DMSO controls) Average 5 μM / Screening data (Relative infection to DMSO controls) Average 10 μM / Screening data (Relative infection to DMSO controls) Average 25 μM / Screening data (Relative infection to DMSO controls) Average 50 μM / Average (relative infection to DMSO over the 5 tested concentrations): 100=DMSO control; for Percentage Inhibition Average 5 μM / Screening data (Relative infection to DMSO controls) Average 5 μM: SARS2, 5 μM; for Percentage Inhibition Average 10 μM / Screening data (Relative infection to DMSO controls) Average 10 μM: SARS2, 10 μM; for Percentage Inhibition Average 25 μM / Screening data (Relative infection to DMSO controls) Average 25 μM: SARS2, 25 μM; for Percentage Inhibition Average 50 μM / Screening data (Relative infection to DMSO controls) Average 50 μM: SARS2, 50 μM; for Average (relative infection to DMSO over the 5 tested concentrations): SARS2, average over 1 to 50 uM; for Infection Data, Average, Mean percentage infection relative to DMSO control: Average of Exp 1 (SMW491) and Exp 2 (SMW492); for Infection Data, Percentage Infection Relative to Appropriate DMSO Control: single well, avg background subtraction
cells (nuclei count) = conditions: for Relative cell count to DMSO controls, Average 1 μM / Relative cell count to DMSO controls, Average 5 μM / Relative cell count to DMSO controls, Average 10 μM / Relative cell count to DMSO controls, Average 25 μM / Relative cell count to DMSO controls, Average 50 μM: toxicity data, 100=DMSO control; for Relative cell count to DMSO controls, Average (for correlation analysis): average value over the 5 tested concentrations (1 to 50 uM); for Toxicity Data, Average, Mean percentage relative to DMSO control: Average of Exp 1 (SMW491) and Exp 2 (SMW492); for Toxicity Data, Percentage Relative to Appropriate DMSO Control: single well

Cc1ccc(CN(CCN(C)C)Cc2ccc(C)s2)o1 [SILCS7]
Percentage Inhibition Average 1 μM (SARS2): 6.07% | Screening data (Relative infection to DMSO controls) Average 1 μM (SARS2): 93.93 | Percentage Inhibition Average 5 μM (SARS2): 7.19% | Screening data (Relative infection to DMSO controls) Average 5 μM (SARS2): 92.81 | Percentage Inhibition Average 10 μM (SARS2): 42.29% | Screening data (Relative infection to DMSO controls) Average 10 μM (SARS2): 57.71 | Percentage Inhibition Average 25 μM (SARS2): 58.04% | Screening data (Relative infection to DMSO controls) Average 25 μM (SARS2): 41.96 | Percentage Inhibition Average 50 μM (SARS2): 68.91% | Screening data (Relative infection to DMSO controls) Average 50 μM (SARS2): 31.09 | Average (relative infection to DMSO over the 5 tested concentrations) (SARS2): 63.50 | Relative cell count to DMSO controls, Average 1 μM (cells (nuclei count)): 110.82 | Relative cell count to DMSO controls, Average 5 μM (cells (nuclei count)): 103.66 | Relative cell count to DMSO controls, Average 10 μM (cells (nuclei count)): 106.58 | Relative cell count to DMSO controls, Average 25 μM (cells (nuclei count)): 103.49 | Relative cell count to DMSO controls, Average 50 μM (cells (nuclei count)): 73.73 | Toxicity Data, Average, Mean (relative to DMSO control) (cells (nuclei count); Average of Exp 1-3, 1 uM): 110.82% | Toxicity Data, Average, Mean (relative to DMSO control) (cells (nuclei count); Average of Exp 1-3, 5 uM): 103.66% | Toxicity Data, Average, Mean (relative to DMSO control) (cells (nuclei count); Average of Exp 1-3, 10 uM): 106.58% | Toxicity Data, Average, Mean (relative to DMSO control) (cells (nuclei count); Average of Exp 1-3, 25 uM): 103.49% | Toxicity Data, Average, Mean (relative to DMSO control) (cells (nuclei count); Average of Exp 1-3, 50 uM): 73.73% | Relative cell count to DMSO controls, Average (for correlation analysis) (cells (nuclei count)): 99.66

COc1ccc(CNCCc2ccccc2F)c(OCC(O)CN2CCN(C)CC2)c1 (stereo not shown) [SILCS46]
SARS2 antiviral activity (SARS2): lower activity | Infection Data, Average, Mean percentage infection relative to DMSO control (SARS2; n=4, 1 uM): 72.12% | Infection Data, Average, Mean percentage infection relative to DMSO control (SARS2; n=4, 5 uM): 0.77% | Infection Data, Average, Mean percentage infection relative to DMSO control (SARS2; n=4, 10 uM): 21.64% | Infection Data, Average, Mean percentage infection relative to DMSO control (SARS2; n=4, 25 uM): 0.03% | Infection Data, Average, Mean percentage infection relative to DMSO control (SARS2; n=4, 50 uM): 0.84% | Infection Data, Percentage Infection Relative to Appropriate DMSO Control (SARS2; Exp 1 (SMW491), 1 uM): 73.61% and 132.86% | Infection Data, Percentage Infection Relative to Appropriate DMSO Control (SARS2; Exp 1 (SMW491), 5 uM): −0.70% and 0.86% | Infection Data, Percentage Infection Relative to Appropriate DMSO Control (SARS2; Exp 1 (SMW491), 10 uM): −2.65% and −0.77% | Infection Data, Percentage Infection Relative to Appropriate DMSO Control (SARS2; Exp 1 (SMW491), 25 uM): −3.35% and 0.11% | Infection Data, Percentage Infection Relative to Appropriate DMSO Control (SARS2; Exp 1 (SMW491), 50 uM): 2.55% and −4.15% | Infection Data, Percentage Infection Relative to Appropriate DMSO Control (SARS2; Exp 2 (SMW492), 1 uM): 49.01% and 32.97% | Infection Data, Percentage Infection Relative to Appropriate DMSO Control (SARS2; Exp 2 (SMW492), 5 uM): 0.99% and 1.92% | Infection Data, Percentage Infection Relative to Appropriate DMSO Control (SARS2; Exp 2 (SMW492), 10 uM): 47.59% and 42.39% | Infection Data, Percentage Infection Relative to Appropriate DMSO Control (SARS2; Exp 2 (SMW492), 25 uM): 0.98% and 2.39% | Infection Data, Percentage Infection Relative to Appropriate DMSO Control (SARS2; Exp 2 (SMW492), 50 uM): 3.90% and 1.08% | Percentage Inhibition Average 1 μM (SARS2): 27.88% | Screening data (Relative infection to DMSO controls) Average 1 μM (SARS2): 72.12 | Percentage Inhibition Average 5 μM (SARS2): 99.23% | Screening data (Relative infection to DMSO controls) Average 5 μM (SARS2): 0.77 | Percentage Inhibition Average 10 μM (SARS2): 78.36% | Screening data (Relative infection to DMSO controls) Average 10 μM (SARS2): 21.64 | Percentage Inhibition Average 25 μM (SARS2): 99.97% | Screening data (Relative infection to DMSO controls) Average 25 μM (SARS2): 0.03 | Percentage Inhibition Average 50 μM (SARS2): 99.16% | Screening data (Relative infection to DMSO controls) Average 50 μM (SARS2): 0.84 | Average (relative infection to DMSO over the 5 tested concentrations) (SARS2): 19.08 | Relative cell count to DMSO controls, Average 1 μM (cells (nuclei count)): 103.33 | Relative cell count to DMSO controls, Average 5 μM (cells (nuclei count)): 131.17 | Relative cell count to DMSO controls, Average 10 μM (cells (nuclei count)): 126.44 | Relative cell count to DMSO controls, Average 25 μM (cells (nuclei count)): 117.77 | Relative cell count to DMSO controls, Average 50 μM (cells (nuclei count)): 107.72 | Toxicity Data, Average, Mean percentage relative to DMSO control (cells (nuclei count); n=4, 1 uM): 103.33% | Toxicity Data, Average, Mean percentage relative to DMSO control (cells (nuclei count); n=4, 5 uM): 131.17% | Toxicity Data, Average, Mean percentage relative to DMSO control (cells (nuclei count); n=4, 10 uM): 126.44% | Toxicity Data, Average, Mean percentage relative to DMSO control (cells (nuclei count); n=4, 25 uM): 117.77% | Toxicity Data, Average, Mean percentage relative to DMSO control (cells (nuclei count); n=4, 50 uM): 107.72% | Toxicity Data, Percentage Relative to Appropriate DMSO Control (cells (nuclei count); Exp 1 (SMW491), 1 uM): 87% and 86% | Toxicity Data, Percentage Relative to Appropriate DMSO Control (cells (nuclei count); Exp 1 (SMW491), 5 uM): 124% and 137% | Toxicity Data, Percentage Relative to Appropriate DMSO Control (cells (nuclei count); Exp 1 (SMW491), 10 uM): 126% and 116% | Toxicity Data, Percentage Relative to Appropriate DMSO Control (cells (nuclei count); Exp 1 (SMW491), 25 uM): 118% and 101% | Toxicity Data, Percentage Relative to Appropriate DMSO Control (cells (nuclei count); Exp 1 (SMW491), 50 uM): 84% and 108% | Toxicity Data, Percentage Relative to Appropriate DMSO Control (cells (nuclei count); Exp 2 (SMW492), 1 uM): 100% and 140% | Toxicity Data, Percentage Relative to Appropriate DMSO Control (cells (nuclei count); Exp 2 (SMW492), 5 uM): 120% and 143% | Toxicity Data, Percentage Relative to Appropriate DMSO Control (cells (nuclei count); Exp 2 (SMW492), 10 uM): 134% and 130% | Toxicity Data, Percentage Relative to Appropriate DMSO Control (cells (nuclei count); Exp 2 (SMW492), 25 uM): 117% and 135% | Toxicity Data, Percentage Relative to Appropriate DMSO Control (cells (nuclei count); Exp 2 (SMW492), 50 uM): 118% and 121% | Relative cell count to DMSO controls, Average (for correlation analysis) (cells (nuclei count)): 117.29
